In patent US8822447B2, “Indazole compounds useful as ketohexokinase inhibitors” (Janssen Pharmaceutica NV, priority 2010, dated 2014):
Structures can show the parent of a compound that is named as a salt.

The compounds below were run against KHK (Homo sapiens (Human), UniProt P50053) (assay: In Vitro KHK Enzyme Assay (HTMS)). Conditions: 200 μM fructose, 100 μM ATP, 2 nM KHK, 60 min at 25° C.; Fructose-1-P detected by high throughput mass spectrometry.
Assay type: biochemical
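Also: primary screen measuring inhibition of KHK-catalysed conversion of D-fructose into fructose 1-phosphate.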

KHK, sequence (P50053 whole entry): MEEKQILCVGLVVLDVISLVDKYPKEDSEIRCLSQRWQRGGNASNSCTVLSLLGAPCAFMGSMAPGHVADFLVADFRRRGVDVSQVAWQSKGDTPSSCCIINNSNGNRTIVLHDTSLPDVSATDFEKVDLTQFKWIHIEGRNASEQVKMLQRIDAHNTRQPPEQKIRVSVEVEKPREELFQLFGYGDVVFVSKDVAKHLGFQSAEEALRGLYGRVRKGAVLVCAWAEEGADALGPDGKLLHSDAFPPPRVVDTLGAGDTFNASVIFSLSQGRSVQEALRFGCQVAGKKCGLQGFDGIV

| SMILES | IC50 [µM] |
| --- | --- |
| CCc1nn(-c2ccccc2)c2nc(N3CCN(C4CNC4)CC3)ncc12 [Compound 82, 6-(4-Azetidin-3-yl-piperazin-1-yl)-3-ethyl-1-phenyl-1H-pyrazolo[3,4-d]pyrimidine] | 23 |
| Cc1nn(-c2ccccc2)c2nc(-c3ccc(NC4CCNCC4)cc3)cc(O)c12 [Compound 101, 3-Methyl-1-phenyl-6-[4-(piperidin-4-ylamino)-phenyl]-1H-pyrazolo[3,4-b]pyridin-4-ol] | 0.89 |
| CSc1nn(-c2ccccc2)c2cc(C=Cn3cncn3)ccc12 [Compound 152, 3-Methylsulfanyl-1-phenyl-6-(2-[1,2,4]triazol-1-yl-vinyl)-1H-indazole] | > 10 |
| COc1ccc(-n2nc(SC)c3ccc(C4=CCNCC4)cc32)cc1 [Compound 140, 1-(4-Methoxy-phenyl)-3-methylsulfanyl-6-(1,2,3,6-tetrahydro-pyridin-4-yl)-1H-indazole] | 0.09 |
| CSc1nn(-c2ccccc2)c2cc(C=Cc3ccc(C)nc3)ccc12 [Compound 178, 6-[2-(6-Methyl-pyridin-3-yl)-vinyl]-3-methylsulfanyl-1-phenyl-1H-indazole] | > 10 |
| CSc1nn(-c2ccc(C)cc2)c2cc(C3=CCNCC3)ccc12 [Compound 184, 3-Methylsulfanyl-6-(1,2,3,6-tetrahydro-pyridin-4-yl)-1-p-tolyl-1H-indazole] | 0.04 |
| CSc1nn(-c2ccccc2C)c2cc(C3=CCNCC3)ccc12 [Compound 180, 3-Methylsulfanyl-6-(1,2,3,6-tetrahydro-pyridin-4-yl)-1-o-tolyl-1H-indazole] | > 10 |
| CCc1nn(-c2ccccc2)c2cc(N3CCN(c4ccncc4)CC3)ccc12 [Compound 47, 3-Ethyl-1-phenyl-6-(4-(pyridin-4-yl)piperazin-1-yl)-1H-indazole hydrochloride] | 3.51 |
| Cc1nn(-c2ccccc2)c2nc(C3CCN(c4cccnc4)CC3)nc(O)c12 [Compound 84, 3-Methyl-1-phenyl-6-(3,4,5,6-tetrahydro-2H-[1,3′]bipyridinyl-4-yl)-1H-pyrazolo[3,4-d]pyrimidin-4-ol] | > 30 |
| CCc1nn(-c2ccccc2)c2nc(C3CCNCC3)nc(O)c12 [Compound 91, 3-Ethyl-1-phenyl-6-piperidin-4-yl-1H-pyrazolo[3,4-d]pyrimidin-4-ol hydrochloride] | 2.4 |
| Cc1nn(-c2ccccc2)c2cc(N3CCNC(C)C3)ccc12 (centres unmarked) [Compound 71, 3-Methyl-6-(3-methylpiperazin-1-yl)-1-phenyl-1H-indazole formic acid salt] | 0.4 |
| Cc1nn(-c2ccccc2)c2nc(C3CCNCC3)nc(O)c12 [Compound 86, 3-Methyl-1-phenyl-6-piperidin-4-yl-1H-pyrazolo[3,4-d]pyrimidin-4-ol hydrochloride] | 6.1 |
| CCc1nn(-c2ccccc2)c2cc(NC(=O)c3cccc(C(=N)N)c3)ccc12 [Compound 40, 3-Carbamimidoyl-N-(3-ethyl-1-phenyl-1H-indazol-6-yl)benzamide acetate] | 0.68 |
| Cc1nn(-c2ccccc2)c2nc(C3CCN(C4CCNCC4)CC3)nc(O)c12 [Compound 89, 6-[1,4′]Bipiperidinyl-4-yl-3-methyl-1-phenyl-1H-pyrazolo[3,4-d]pyrimidin-4-ol hydrochloride] | 14 |
| CSc1nn(-c2ccccc2)c2cc(C3=CCN(C(=O)CCN)CC3)ccc12 [Compound 149, 3-Amino-1-[4-(3-methylsulfanyl-1-phenyl-1H-indazol-6-yl)-3,6-dihydro-2H-pyridin-1-yl]-propan-1-one] | 0.48 |
| CCc1nn(-c2ccccc2)c2cc(OC3CN(C4CCNCC4)C3)ccc12 [Compound 41, 3-Ethyl-1-phenyl-6-(1-(piperidin-4-yl)azetidin-3-yloxy)-1H-indazole hydrochloride] | > 30 |
| Cc1nn(-c2ccccc2)c2cc(N3CCN(c4ccncc4)CC3)ccc12 [Compound 65, 3-Methyl-1-phenyl-6-(4-(pyridin-4-yl)piperazin-1-yl)-1H-indazole hydrochloride] | 7.73 |
| Cc1nn(-c2ccccc2)c2cc(N3CCNCC3)ccc12 [Compound 59, 3-Methyl-1-phenyl-6-(piperazin-1-yl)-1H-indazole] | 1.28 |
| Cc1nn(-c2ccccc2)c2cc(N3CCN(C)CC3)ccc12 [Compound 68, 3-Methyl-6-(4-methylpiperazin-1-yl)-1-phenyl-1H-indazole] | 1.57 |
| CSc1nn(-c2ccc([N+](=O)[O-])cc2)c2cc(CN3CCNCC3)ccc12 [Compound 130, 3-Methylsulfanyl-1-(4-nitro-phenyl)-6-piperazin-1-ylmethyl-1H-indazole] | 44.9 |
| CSc1nn(-c2ccccc2)c2cc(NC(=O)c3ccncc3)ccc12 [Compound 8, N-(3-Methylsulfanyl-1-phenyl-1H-indazol-6-yl)-isonicotinamide] | 1.01 |
| COc1cc(-c2ccc(N3CCNCC3)cc2)nc2c1c(C)nn2-c1ccccc1 [Compound 99, 4-Methoxy-3-methyl-1-phenyl-6-(4-piperazin-1-yl-phenyl)-1H-pyrazolo[3,4-b]pyridine] | 0.6 |
| Cc1nn(-c2ccccc2)c2nc(CC3CCN(C4CNC4)CC3)nc(O)c12 [Compound 90, 6-(1-Azetidin-3-yl-piperidin-4-ylmethyl)-3-methyl-1-phenyl-1H-pyrazolo[3,4-d]pyrimidin-4-ol] | > 30 |
| CSc1nn(-c2ccc(N)cc2)c2cc(CN3CCNCC3)ccc12 [Compound 115, 4-(3-Methylsulfanyl-6-piperazin-1-ylmethyl-indazol-1-yl)-phenylamine] | > 51 |

Results, then the compound that gave them:

| IC50 [µM] | SMILES |
| --- | --- |
| 8.28 | CSc1nn(-c2ccccc2)c2cc(C(=O)CC3CCCN3)ccc12 (centres unmarked) [Compound 163, 1-(3-Methylsulfanyl-1-phenyl-1H-indazol-6-yl)-2-pyrrolidin-2-yl-ethanone] |
| 0.92 | CSc1nn(-c2ccccc2)c2cc(CCC3CCNCC3)ccc12 [Compound 185, 3-Methylsulfanyl-1-phenyl-6-(2-piperidin-4-yl-ethyl)-1H-indazole] |
| 0.46 | CSc1nn(-c2ccccc2)c2cc(N3CCN(C4CCNC4)C3=O)ccc12 (centres unmarked) [Compound 25, 1-(3-(Methylthio)-1-phenyl-1H-indazol-6-yl)-3-(pyrrolidin-3-yl)imidazolidin-2-one hydrochloride] |
| 4.22 | CSc1nn(-c2cc(F)cc(F)c2)c2cc(N3CCN(C4CCNCC4)CC3)ccc12 [Compound 126, 1-(3,5-Difluoro-phenyl)-3-methylsulfanyl-6-(4-piperidin-4-yl-piperazin-1-yl)-1H-indazole] |
| > 2 | CSc1nn(-c2ccccc2)c2cc(C(O)C3CCNCC3)ccc12 (centres unmarked) [Compound 136, (3-Methylsulfanyl-1-phenyl-1H-indazol-6-yl)-piperidin-4-yl-methanol] |
| 0.39 | COc1nn(-c2ccccc2)c2cc(N3CC(N4CCNCC4)C3)ccc12 [Compound 73, 3-Methoxy-1-phenyl-6-(3-(piperazin-1-yl)azetidin-1-yl)-1H-indazole hydrochloride] |
| 0.83 | CSc1nn(-c2ccccc2)c2cc(N3CCN(C(=O)C4CCNCC4)CC3)ccc12 [Compound 34, (4-(3-(Methylthio)-1-phenyl-1H-indazol-6-yl)piperazin-1-yl)(piperidin-4-yl)methanone hydrochloride] |
| 0.68 | Cc1nn(-c2ccccc2)c2cc(N3CCC(N)C3)ccc12 (centres unmarked) [Compound 72, 1-(3-Methyl-1-phenyl-1H-indazol-6-yl)pyrrolidin-3-amine formic acid salt] |
| 0.43 | CSc1nn(-c2ccccc2)c2cc(N3CCN(C(=O)C4CCCCN4)CC3)ccc12 (centres unmarked) [Compound 35, (4-(3-(Methylthio)-1-phenyl-1H-indazol-6-yl)piperazin-1-yl)(piperidin-2-yl)methanone] |
| 4.45 | CSc1nn(-c2ccccc2)c2cc(N3CCN(C4CCNC4)CC3)ccc12 (centres unmarked) [Compound 22, 3-(Methylthio)-1-phenyl-6-(4-(pyrrolidin-3-yl)piperazin-1-yl)-1H-indazole hydrochloride] |
| 6.62 | CSc1nn(-c2ccccc2)c2cc(C(=O)CC3CCCNC3)ccc12 (centres unmarked) [Compound 161, 1-(3-Methylsulfanyl-1-phenyl-1H-indazol-6-yl)-2-piperidin-3-yl-ethanone] |
| 0.54 | CSc1nn(-c2ccccc2)c2cc(N3CCCNCC3)ccc12 [Compound 11, 6-(1,4-Diazepan-1-yl)-3-(methylthio)-1-phenyl-1H-indazole hydrochloride] |
| 0.31 | COc1nn(-c2ccccc2)c2cc(N3CCN(C4CCNC4)CC3)ccc12 (centres unmarked) [Compound 75, 3-Methoxy-1-phenyl-6-(4-(pyrrolidin-3-yl)piperazin-1-yl)-1H-indazole hydrochloride] |
| 0.68 | CSc1nn(-c2ccccc2)c2cc(NC(=O)CN3CCNCC3)ccc12 [Compound 131, N-(3-Methylsulfanyl-1-phenyl-1H-indazol-6-yl)-2-piperazin-1-yl-acetamide] |
| 0.31 | CSc1nn(-c2ccccc2)c2cc(NC(=O)C3CCCNC3)ccc12 (centres unmarked) [Compound 12, N-(3-(Methylthio)-1-phenyl-1H-indazol-6-yl)piperidine-3-carboxamide hydrochloride] |
| 1 | CSc1nn(-c2ccccc2)c2cc(C(=O)CC3CCNCC3)ccc12 [Compound 160, 1-(3-Methylsulfanyl-1-phenyl-1H-indazol-6-yl)-2-piperidin-4-yl-ethanone] |
| 3.75 | Cc1nn(-c2ccccc2)c2cc(N3CCN(C4CCNC4)CC3)ccc12 (centres unmarked) [Compound 63, 3-Methyl-1-phenyl-6-(4-(pyrrolidin-3-yl)piperazin-1-yl)-1H-indazole hydrochloride] |
| 0.56 | CSc1nn(-c2ccccc2)c2cc(N3CC(N4CCNCC4)C3)ccc12 [Compound 15, 3-(Methylthio)-1-phenyl-6-(3-(piperazin-1-yl)azetidin-1-yl)-1H-indazole hydrochloride] |
| 0.36 | COc1ccc(-n2nc(SC)c3ccc(N4CCN(C5CCNCC5)CC4)cc32)cc1 [Compound 106, 1-(4-Methoxy-phenyl)-3-methylsulfanyl-6-(4-piperidin-4-yl-piperazin-1-yl)-1H-indazole] |
| 2.03 | CSc1nn(-c2ccccc2)c2cc(N3CCN(C(=O)c4ccncc4)CC3)ccc12 [Compound 17, (4-(3-(Methylthio)-1-phenyl-1H-indazol-6-yl)piperazin-1-yl)(pyridin-4-yl)methanone] |
